The test system of test [1] is RNA-2 to 5 (other non-canonically paired regions replaced with base pairs). Briefly: Competitive binding assay (2-AP), RNA-2 to 5.
Description: (§1) I and I0 are the observed fluorescence intensity in the presence and absence of 2-AP RNA. Δε is the difference between the fluorescence intensity in the absence and presence of infinite 2-AP RNA. […] EC50 was calculated from Eq. (1). […] The change of fluorescence intensity was fit to Eq. (2):
(§2) θ is the percentage of 2-AP RNA bound. [RNA] is the concentration of 2-AP RNA. EC50 is the EC50 of Synucleozid determined in the assay above. [Synucleozid] is the concentration of Synucleozid. Cc is the concentration of competitive RNA. Kd is competitive dissociation constant and A is a constant.
Test [2] addresses unlabeled SNCA IRE RNA (RNA-0). Briefly: Competitive binding assay (2-AP), RNA-0. Conditions: read-out: competitive Kd; RNA-0, native SNCA IRE.
Description: as §1, §2
The subject of another test is PrP 5′ UTR. Conditions: SH-SY5Y cells.
Test [3] has as its system construct in which the SNCA 5′ UTR was absent. Briefly: Luciferase reporter assay, construct lacking SNCA 5′ UTR, SH-SY5Y cells. The class given is cell-based, human. The following applies: cellular. From the text:
pIRES-Luc-EGFP-puro: The firefly luciferase open reading frame (ORF) was amplified with primers 1 and 2 using pmirGLO-dual-luciferase (Promega, E1330) as a template. The PCR product was then fused with linearized pIRES-EGFP-puro (Addgene plasmid #45567) digested with XhoI and SacI, placing the luciferase ORF upstream of the IRES sequence. pCDH-Luc-EGFP-puro: The firefly luciferase open reading frame (ORF) was amplified with primers 15 and 16 using pmirGLO-dual-luciferase (Promega, E1330) as a template. The PCR product was then fused with linearized pCDH-CB-IRES-copGFP-T2A-Puro digested with BamHI and NotI, placing the luciferase ORF upstream of IRES sequence. Luciferase assay. The effect of Synucleozid treatment on translation from various IRE containing transcripts was determined using luciferase reporter assay. […] Luciferase reporter activity in each lysate was monitored using the dual luciferase reporter assay system kit (Promega. Madison, Wis., USA) according to the manufacturer's instructions. Luminescence from firefly luciferase reaction was measured using a microplate luminometer (Wallac 1420, Perkin Elmer) at 485 nm excitation and 535 nm emission wavelengths. Firefly luciferase reaction was then quenched by adding Stop & Glo reagent, and the internal fluorescence from GFP measured at the same setting was used to normalize luciferase expression. […]
For orientation: In a reporter assay the amount or activity of a reporter protein is the signal.

For orientation: Kd means the equilibrium constant for the complex coming apart.

Consider `N=C(N)c1ccc(Nc2ccc(-c3cc4ccc(C(=N)N)cc4[nH]3)cc2)cc1` [Synucleozid A], for which the “effect of mutation on Synucleozid binding” value in test [1] was “no effect”. Besides, in test [2], the Kd came to 1.5 ± 0.3 µM. Further, the “effect on translation of luciferase fused to PrP 5′ UTR” value in the test on PrP 5′ UTR was “no effect”. In addition, the “inhibitory effect on luciferase construct lacking SNCA 5′ UTR” value in test [3] is on record as “No inhibitory effect”.
